According to US11053204B2, “Pyrimidinyloxy benzene derivatives as herbicides” (FMC Corporation, priority 2015, dated 2021):

Columns and labels:
Type in all cases: in vivo
[1] = tested on: large (Lg) crabgrass (Digitaria sanguinalis); assay: Test A preemergence, visual injury rating; details: 1000 g ai/ha, 0 to 100 scale (0 no effect, 100 complete control)
Procedure, shortened: (§1)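 Compounds in non-phytotoxic solvent with surfactant applied as soil spray preemergence, or postemergence to plants 2-10 cm at one- to two-leaf stage, in loam/sand. After approximately 10 days in greenhouse, injury rated visually versus untreated controls, 0 (no effect) to 100 (complete control).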

[2] = tested on: giant foxtail (Setaria faberii); assay: Test A preemergence, visual injury rating; details: for Foxtail, Giant plant response rating: 0 to 100 scale (0 no effect, 100 complete control)
Procedure, shortened: as §1

[3] = tested on: barnyardgrass (Echinochloa crus-galli); assay: Test A preemergence, visual injury rating; details: for Barnyardgrass plant response rating: 0 to 100 scale (0 no effect, 100 complete control)
Procedure, shortened: as §1

[4] = tested on: corn (Zea mays); assay: Test A preemergence, visual injury rating; details: 1000 g ai/ha, 0 to 100 scale (0 no effect, 100 complete control)
Procedure, shortened: as §1

[5] = tested on: wheat (Triticum aestivum); assay: Test A preemergence, visual injury rating; details: 1000 g ai/ha, 0 to 100 scale (0 no effect, 100 complete control)
Procedure, shortened: as §1

[6] = tested on: velvetleaf (Abutilon theophrasti); assay: Test A preemergence, visual injury rating; details: 1000 g ai/ha, 0 to 100 scale (0 no effect, 100 complete control)
Procedure, shortened: as §1

[7] = tested on: pigweed (Amaranthus retroflexus); assay: Test A preemergence, visual injury rating; details: for Pigweed plant response rating: 0 to 100 scale (0 no effect, 100 complete control)
Procedure, shortened: as §1

[8] = tested on: large (Lg) crabgrass (Digitaria sanguinalis); assay: Test A postemergence, visual injury rating; details: 1000 g ai/ha, 0 is no effect, 100 is complete control
Procedure, shortened: as §1

[9] = tested on: giant foxtail (Setaria faberii); assay: Test A postemergence, visual injury rating; details: 0 is no effect, 100 is complete control
Procedure, shortened: as §1

[10] = tested on: barnyardgrass (Echinochloa crus-galli); assay: Test A postemergence, visual injury rating; details: 0 is no effect, 100 is complete control
Procedure, shortened: as §1

[11] = tested on: corn (Zea mays); assay: Test A postemergence, visual injury rating; details: 0 is no effect, 100 is complete control
Procedure, shortened: as §1

[12] = tested on: wheat (Triticum aestivum); assay: Test A postemergence, visual injury rating; details: 0 is no effect, 100 is complete control
Procedure, shortened: as §1

[13] = tested on: velvetleaf (Abutilon theophrasti); assay: Test A postemergence, visual injury rating; details: 1000 g ai/ha, 0 is no effect, 100 is complete control
Procedure, shortened: as §1

[14] = tested on: pigweed (Amaranthus retroflexus); assay: Test A postemergence, visual injury rating; details: 0 is no effect, 100 is complete control
Procedure, shortened: as §1

[15] = tested on: morningglory (Ipomoea spp.); assay: Test A preemergence, visual injury rating; details: 1000 g ai/ha, 0 to 100 scale (0 no effect, 100 complete control)
Procedure, shortened: as §1

[16] = tested on: morningglory (Ipomoea spp.); assay: Test A postemergence, visual injury rating; details: 1000 g ai/ha, 0 is no effect, 100 is complete control
Procedure, shortened: as §1

[17] = tested on: Italian ryegrass (Lolium multiflorum); assay: Test A preemergence, visual injury rating
Procedure, shortened: as §1

[18] = tested on: kochia (Kochia scoparia); assay: Test A preemergence, visual injury rating
Procedure, shortened: as §1

[19] = tested on: ragweed (common ragweed, Ambrosia elatior); assay: Test A preemergence, visual injury rating
Procedure, shortened: as §1

[20] = tested on: barnyardgrass (Echinochloa crus-galli); assay: Test B flooded paddy test, plant response rating; details: 250 g ai/ha; Flood; scale of 0 to 100 where 0 is no effect and 100 is complete control; 13 to 15 days
Procedure, shortened: (§2)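 Compound was added to standing water 3 cm above soil, flood maintained, and plants held in a greenhouse before visual scoring against controls at 13 to 15 days.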

[21] = tested on: rice (Oryza sativa); assay: Test B flooded paddy test, plant response rating; details: 250 g ai/ha; Flood; scale of 0 to 100 where 0 is no effect and 100 is complete control; 13 to 15 days
Procedure, shortened: as §2

[22] = tested on: ducksalad (Heteranthera limosa); assay: Test B flooded paddy test, plant response rating; details: 250 g ai/ha; Flood; scale of 0 to 100 where 0 is no effect and 100 is complete control; 13 to 15 days
Procedure, shortened: as §2

[23] = tested on: sedge, umbrella (small-flower umbrella sedge, Cyperus difformis); assay: Test B flooded paddy test, plant response rating; details: 250 g ai/ha; Flood; scale of 0 to 100 where 0 is no effect and 100 is complete control; 13 to 15 days
Procedure, shortened: as §2

[24] = tested on: Italian ryegrass (Lolium multiflorum); assay: Test A postemergence, visual injury rating; details: 0 is no effect, 100 is complete control
Procedure, shortened: as §1

[25] = tested on: blackgrass (Alopecurus myosuroides); assay: Test A postemergence, visual injury rating; details: 0 is no effect, 100 is complete control
Procedure, shortened: as §1

[26] = tested on: kochia (Kochia scoparia); assay: Test A postemergence, visual injury rating; details: 0 is no effect, 100 is complete control
Procedure, shortened: as §1

[27] = tested on: ragweed (common ragweed, Ambrosia elatior); assay: Test A postemergence, visual injury rating; details: 0 is no effect, 100 is complete control
Procedure, shortened: as §1

[28] = tested on: galium (catchweed bedstraw, Galium aparine); assay: Test A postemergence, visual injury rating; details: 0 is no effect, 100 is complete control
Procedure, shortened: as §1

[29] = tested on: sedge, umbrella (small-flower umbrella sedge Cyperus difformis); assay: Test C flooded paddy test, plant response rating; details: flood, scale 0 to 100
Description: (§3) At the same time, plants selected from these crop and weed species and also chickweed (common chickweed, Stellaria media), buckwheat, wild (wild buckwheat, Polygonum convolvulus), wild mustard (Sinapis arvensis), field poppy (Papaver rhoeas), field violet (Viola arvensis), geranium, cutleaf (cutleaf geranium, Geranium dissectum), Canada thistle (Cirsium arvense), and speedwell (bird's-eye speedwell, Veronica persica), were planted in pots containing Sunshine Redi-Earth® planting medium comprising spaghnum peat moss, vermiculite, starter nutrients and dolomitic limestone and treated with postemergence applications of test chemicals formulated in the same manner. Plants ranged in height from 2 to 18 cm (1- to 4-leaf stage) for postemergence treatments. Treated plants and controls were maintained in a greenhouse for 13 to 15 d, after which time all species were compared to controls and visually evaluated. Plant response ratings, summarized in Table C, are based on a scale of 0 to 100 where 0 is no effect and 100 is complete control. A dash (-) response means no test result.
(§4) Plant species in the flooded paddy test consisted of rice (Oryza sativa), sedge, umbrella (small-flower umbrella sedge Cyperus difformis), ducksalad (Heteranthera limosa), and barnyardgrass (Echinochloa crus-galli) grown to the 2-leaf stage for testing. At time of treatment, test pots were flooded to 3 cm above the soil surface, treated by application of test compounds directly to the paddy water, and then maintained at that water depth for the duration of the test.

[30] = tested on: barnyardgrass (Echinochloa crus-galli); assay: Test C flooded paddy test, plant response rating; details: flood, scale 0 to 100
Description: as §3, §4

[31] = tested on: rice (Oryza sativa); assay: Test C flooded paddy test, plant response rating; details: flood, scale 0 to 100
Description: as §3, §4

[32] = tested on: ducksalad (Heteranthera limosa); assay: Test C flooded paddy test, plant response rating; details: flood, scale 0 to 100
Description: as §3, §4

[33] = 31 g ai/ha, 0 to 100 scale, 0 no effect, 100 complete control
[34] = 125 g ai/ha, 0 to 100 scale (0 no effect, 100 complete control)
[35] = 31 g ai/ha, 0 to 100 scale, approximately 10 days

## CON=C(C)c1ccccc1Oc1ncc(Cl)cn1 [Compound 55]
[1]
  Crabgrass, Large plant response rating: 0
[2]; 1000 g ai/ha
  Foxtail, Giant plant response rating: 0
[3]; 1000 g ai/ha
  Barnyardgrass plant response rating: 0
[4]
  Corn plant response rating: 0
[5]
  Wheat plant response rating: 0
[6]
  Velvetleaf plant response rating: 0
[7]; 1000 g ai/ha
  Pigweed plant response rating: 0
[8]
  Crabgrass, Large plant response rating (0 to 100 scale): 0
[9]; 1000 g ai/ha
  Foxtail, Giant plant response rating (0 to 100 scale): 10
[10]; 1000 g ai/ha
  Barnyardgrass plant response rating (0 to 100 scale): 0
[11]; 1000 g ai/ha
  Corn plant response rating (0 to 100 scale): 0
[12]; 1000 g ai/ha
  Wheat plant response rating (0 to 100 scale): 0
[13]
  Velvetleaf plant response rating (0 to 100 scale): 10
[14]; 1000 g ai/ha
  Pigweed plant response rating (0 to 100 scale): 0

## CC(=NOC(C)(C)C)c1ccccc1Oc1ncc(Cl)cn1 [Compound 59]
[1]
  Crabgrass, Large plant response rating: 80
[2]; 1000 g ai/ha
  Foxtail, Giant plant response rating: 30
[3]; 1000 g ai/ha
  Barnyardgrass plant response rating: 20
[4]
  Corn plant response rating: 0
[5]
  Wheat plant response rating: 0
[6]
  Velvetleaf plant response rating: 0
[7]; 1000 g ai/ha
  Pigweed plant response rating: 30
[15]
  Morningglory plant response rating: 0
[8]
  Crabgrass, Large plant response rating (0 to 100 scale): 10
[9]; 1000 g ai/ha
  Foxtail, Giant plant response rating (0 to 100 scale): 10
[10]; 1000 g ai/ha
  Barnyardgrass plant response rating (0 to 100 scale): 0
[11]; 1000 g ai/ha
  Corn plant response rating (0 to 100 scale): 20
[12]; 1000 g ai/ha
  Wheat plant response rating (0 to 100 scale): 30
[14]; 1000 g ai/ha
  Pigweed plant response rating (0 to 100 scale): 30
[16]
  Morningglory plant response rating (0 to 100 scale): 0

## FC(F)(F)CCOCc1c(Br)cccc1Oc1ncc(Cl)cn1 [Compound 66]
[17]; [33]
  Plant response rating, Ryegrass, Italian: 0
[17]; [34]
  Ryegrass, Italian plant response rating: 30
[2]; [33]
  Plant response rating, Foxtail, Giant: 70
[2]; 125 g ai/ha
  Foxtail, Giant plant response rating: 100
[18]; [33]
  Plant response rating, Kochia: 0
[18]; [34]
  Kochia plant response rating: 40
[3]; [33]
  Plant response rating, Barnyardgrass: 90
[3]; 125 g ai/ha
  Barnyardgrass plant response rating: 100
[19]; [33]
  Plant response rating, Ragweed: 0
[19]; [34]
  Ragweed plant response rating: 100
[7]; [33]
  Plant response rating, Pigweed: 20
[7]; 125 g ai/ha
  Pigweed plant response rating: 100
[20]
  Plant response rating, Barnyardgrass: 30
[21]
  Plant response rating, Rice: 0
[22]
  Plant response rating, Ducksalad: 100
[23]
  Plant response rating, Sedge, Umbrella: 95
[24]; [35]
  Ryegrass, Italian plant response rating: 0
[24]; 125 g ai/ha
  Ryegrass, Italian plant response rating (0 to 100 scale): 50
[25]; [35]
  Blackgrass plant response rating: 10
[25]; 125 g ai/ha
  Blackgrass plant response rating (0 to 100 scale): 100
[9]; [35]
  Foxtail, Giant plant response rating: 30
[9]; 125 g ai/ha
  Foxtail, Giant plant response rating (0 to 100 scale): 100
[26]; [35]
  Kochia plant response rating: 20
[26]; 125 g ai/ha
  Kochia plant response rating (0 to 100 scale): 50
[10]; [35]
  Barnyardgrass plant response rating: 40
[10]; 125 g ai/ha
  Barnyardgrass plant response rating (0 to 100 scale): 100
[27]; [35]
  Ragweed plant response rating: 0
[27]; 125 g ai/ha
  Ragweed plant response rating (0 to 100 scale): 20
[11]; [35]
  Corn plant response rating: 20
[11]; 125 g ai/ha
  Corn plant response rating (0 to 100 scale): 70
[28]; [35]
  Galium plant response rating: 30
[28]; 125 g ai/ha
  Galium plant response rating (0 to 100 scale): 100
[12]; [35]
  Wheat plant response rating: 0
[12]; 125 g ai/ha
  Wheat plant response rating (0 to 100 scale): 30
[14]; [35]
  Pigweed plant response rating: 40
[14]; 125 g ai/ha
  Pigweed plant response rating (0 to 100 scale): 100
[29]; 31 g ai/ha
  Sedge, Umbrella plant response rating: 40
[29]; 62 g ai/ha
  Sedge, Umbrella plant response rating: 75
[29]; 125 g ai/ha
  Sedge, Umbrella plant response rating: 85
[29]; 250 g ai/ha
  Sedge, Umbrella plant response rating: 95
[30]; 31 g ai/ha
  Barnyardgrass plant response rating: 0
[30]; 62 g ai/ha
  Barnyardgrass plant response rating: 0
[30]; 125 g ai/ha
  Barnyardgrass plant response rating: 25
[30]; 250 g ai/ha
  Barnyardgrass plant response rating: 80
[31]; 31 g ai/ha
  Rice plant response rating: 0
[31]; 62 g ai/ha
  Rice plant response rating: 0
[31]; 125 g ai/ha
  Rice plant response rating: 0
[31]; 250 g ai/ha
  Rice plant response rating: 20
[32]; 31 g ai/ha
  Ducksalad plant response rating: 40
[32]; 62 g ai/ha
  Ducksalad plant response rating: 80
[32]; 125 g ai/ha
  Ducksalad plant response rating: 85
[32]; 250 g ai/ha
  Ducksalad plant response rating: 95
